Results published in patent US8129417B2, “Substituted octahydrocyclopenta[C]pyrrol-4-amines as calcium channel blockers” (Abbott Laboratories, priority 2008, dated 2012).

Molecular target: human Cav2.2 (Homo sapiens, UniProt Q00975)
Assay: Assessment of calcium channel activity using FLIPR (Ca2+ influx in IMR32 cells)
Format: cell-based
Settings: for inhibition at 10 µM: IMR-32, @ 10 μM, 3 minute pre-incubation (*), read-out: percent inhibition; for IC50: 2 μM nifedipine, depolarized with 80 mM KCl
In short: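 IC50 came from sigmoidal non-linear regression of percent inhibition, relative to uninhibited activity, across compound concentrations. Calcium influx was measured by FLIPR in IMR32 cells plated at 1-1.2×10^5 cells/well and cultured 48 h at 37 °C.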

[1] = 60 minute pre-incubation with compound
[2] = 3 minute pre-incubation with compound (*)

Chain of human Cav2.2 (Q00975 whole entry): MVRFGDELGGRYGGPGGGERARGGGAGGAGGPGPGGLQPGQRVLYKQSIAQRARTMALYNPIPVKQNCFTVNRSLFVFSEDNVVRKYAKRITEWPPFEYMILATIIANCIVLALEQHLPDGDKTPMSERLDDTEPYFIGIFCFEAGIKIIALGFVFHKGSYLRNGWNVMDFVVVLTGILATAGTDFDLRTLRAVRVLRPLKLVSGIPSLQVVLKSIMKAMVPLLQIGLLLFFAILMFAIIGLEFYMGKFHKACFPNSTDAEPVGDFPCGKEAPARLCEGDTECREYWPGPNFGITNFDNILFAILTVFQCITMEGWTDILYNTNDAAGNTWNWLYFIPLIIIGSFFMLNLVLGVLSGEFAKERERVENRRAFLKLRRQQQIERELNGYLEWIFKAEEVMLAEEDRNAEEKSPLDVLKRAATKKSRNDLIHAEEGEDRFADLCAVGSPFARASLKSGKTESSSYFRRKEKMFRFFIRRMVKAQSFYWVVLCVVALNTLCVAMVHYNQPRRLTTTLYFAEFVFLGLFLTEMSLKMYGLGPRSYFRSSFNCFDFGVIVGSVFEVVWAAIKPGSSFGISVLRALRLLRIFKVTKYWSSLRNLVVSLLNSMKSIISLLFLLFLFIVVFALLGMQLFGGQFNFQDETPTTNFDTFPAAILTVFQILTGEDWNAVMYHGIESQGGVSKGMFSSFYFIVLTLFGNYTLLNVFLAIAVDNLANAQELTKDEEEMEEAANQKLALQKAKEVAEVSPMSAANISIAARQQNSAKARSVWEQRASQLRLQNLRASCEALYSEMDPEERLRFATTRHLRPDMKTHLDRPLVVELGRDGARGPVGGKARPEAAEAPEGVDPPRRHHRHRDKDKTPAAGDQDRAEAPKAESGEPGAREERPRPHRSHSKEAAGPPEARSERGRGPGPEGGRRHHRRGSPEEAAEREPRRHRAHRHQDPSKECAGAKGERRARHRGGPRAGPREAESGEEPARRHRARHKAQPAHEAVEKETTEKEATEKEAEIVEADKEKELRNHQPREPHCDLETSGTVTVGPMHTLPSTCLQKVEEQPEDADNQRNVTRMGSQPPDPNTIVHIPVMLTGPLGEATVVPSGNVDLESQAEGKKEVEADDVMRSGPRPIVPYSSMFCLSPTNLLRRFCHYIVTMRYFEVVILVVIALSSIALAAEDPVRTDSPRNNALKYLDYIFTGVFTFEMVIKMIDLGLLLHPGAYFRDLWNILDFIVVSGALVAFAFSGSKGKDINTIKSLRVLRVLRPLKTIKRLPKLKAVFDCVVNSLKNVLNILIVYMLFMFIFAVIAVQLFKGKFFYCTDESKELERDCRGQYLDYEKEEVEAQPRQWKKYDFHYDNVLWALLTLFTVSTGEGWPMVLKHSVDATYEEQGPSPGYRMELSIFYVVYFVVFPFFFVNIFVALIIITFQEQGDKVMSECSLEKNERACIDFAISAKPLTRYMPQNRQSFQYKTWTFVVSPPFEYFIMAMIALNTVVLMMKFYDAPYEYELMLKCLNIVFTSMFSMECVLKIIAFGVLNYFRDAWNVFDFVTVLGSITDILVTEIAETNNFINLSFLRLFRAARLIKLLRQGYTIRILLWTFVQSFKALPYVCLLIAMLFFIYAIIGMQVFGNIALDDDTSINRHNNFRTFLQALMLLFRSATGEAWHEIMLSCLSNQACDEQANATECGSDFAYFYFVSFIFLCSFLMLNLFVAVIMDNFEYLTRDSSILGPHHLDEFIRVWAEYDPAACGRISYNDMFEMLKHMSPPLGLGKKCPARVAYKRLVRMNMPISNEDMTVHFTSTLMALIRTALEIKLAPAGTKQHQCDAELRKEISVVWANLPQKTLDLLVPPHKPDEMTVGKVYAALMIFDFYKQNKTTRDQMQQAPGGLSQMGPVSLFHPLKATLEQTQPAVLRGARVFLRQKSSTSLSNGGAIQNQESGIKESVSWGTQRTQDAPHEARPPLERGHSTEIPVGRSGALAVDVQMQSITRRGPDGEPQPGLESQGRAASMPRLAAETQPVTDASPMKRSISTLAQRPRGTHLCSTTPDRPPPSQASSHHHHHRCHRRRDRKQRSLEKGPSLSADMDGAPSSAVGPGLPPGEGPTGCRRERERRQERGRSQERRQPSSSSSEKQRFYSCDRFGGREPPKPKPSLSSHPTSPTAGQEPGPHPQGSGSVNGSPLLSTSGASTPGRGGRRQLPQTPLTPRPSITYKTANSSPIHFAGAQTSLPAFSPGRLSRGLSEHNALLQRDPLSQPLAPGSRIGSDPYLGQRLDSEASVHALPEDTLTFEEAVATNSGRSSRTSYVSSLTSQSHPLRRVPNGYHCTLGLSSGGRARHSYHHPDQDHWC
Chain of human Cav2.2 (P54289 25-946 partner limits assumed): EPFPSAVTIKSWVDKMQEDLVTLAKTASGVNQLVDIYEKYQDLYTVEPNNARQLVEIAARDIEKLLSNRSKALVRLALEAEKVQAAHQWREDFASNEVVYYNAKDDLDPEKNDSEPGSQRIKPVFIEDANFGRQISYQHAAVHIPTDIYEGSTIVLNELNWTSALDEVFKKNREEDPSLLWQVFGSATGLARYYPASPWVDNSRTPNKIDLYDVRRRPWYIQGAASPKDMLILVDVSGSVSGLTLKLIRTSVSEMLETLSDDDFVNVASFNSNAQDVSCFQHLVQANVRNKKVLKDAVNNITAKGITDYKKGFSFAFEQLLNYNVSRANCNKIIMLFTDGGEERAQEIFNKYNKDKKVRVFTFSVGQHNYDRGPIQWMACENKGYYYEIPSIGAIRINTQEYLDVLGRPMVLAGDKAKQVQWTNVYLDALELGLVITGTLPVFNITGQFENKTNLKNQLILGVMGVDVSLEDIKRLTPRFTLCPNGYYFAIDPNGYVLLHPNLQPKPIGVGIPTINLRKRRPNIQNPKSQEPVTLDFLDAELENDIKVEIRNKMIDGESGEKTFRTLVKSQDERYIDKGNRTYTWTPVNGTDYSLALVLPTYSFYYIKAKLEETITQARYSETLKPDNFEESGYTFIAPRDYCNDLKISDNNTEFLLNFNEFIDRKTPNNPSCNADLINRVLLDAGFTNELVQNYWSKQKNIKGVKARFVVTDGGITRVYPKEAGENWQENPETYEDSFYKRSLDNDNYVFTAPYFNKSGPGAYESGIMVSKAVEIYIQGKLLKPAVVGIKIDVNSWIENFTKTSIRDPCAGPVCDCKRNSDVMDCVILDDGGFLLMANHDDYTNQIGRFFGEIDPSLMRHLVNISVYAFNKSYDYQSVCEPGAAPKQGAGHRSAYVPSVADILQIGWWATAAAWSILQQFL
Chain of human Cav2.2 (P54289 947-1103 partner limits assumed): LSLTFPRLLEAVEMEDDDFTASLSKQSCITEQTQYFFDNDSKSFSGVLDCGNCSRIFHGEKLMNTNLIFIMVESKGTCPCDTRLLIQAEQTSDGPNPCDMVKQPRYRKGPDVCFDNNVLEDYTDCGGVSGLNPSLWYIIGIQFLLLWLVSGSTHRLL
Chain of human Cav2.2 (P54284 whole entry partner): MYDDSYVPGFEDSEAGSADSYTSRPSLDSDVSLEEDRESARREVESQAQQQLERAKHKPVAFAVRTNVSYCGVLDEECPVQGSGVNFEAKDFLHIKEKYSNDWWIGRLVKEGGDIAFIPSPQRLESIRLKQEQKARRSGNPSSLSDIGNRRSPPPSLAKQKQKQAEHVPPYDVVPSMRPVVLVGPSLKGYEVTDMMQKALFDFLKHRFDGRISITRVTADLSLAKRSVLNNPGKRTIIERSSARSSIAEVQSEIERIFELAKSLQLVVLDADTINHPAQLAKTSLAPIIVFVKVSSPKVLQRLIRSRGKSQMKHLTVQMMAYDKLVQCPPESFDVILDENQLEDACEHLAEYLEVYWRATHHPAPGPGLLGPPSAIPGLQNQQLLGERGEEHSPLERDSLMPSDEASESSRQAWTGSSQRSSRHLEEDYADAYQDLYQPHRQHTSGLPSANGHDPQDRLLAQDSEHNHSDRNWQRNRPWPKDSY

Row | IC50 [1] [nM] | Compound | further results
1 |  | CC[C@H](C(=O)N[C@@H]1CC[C@@H]2CN([C@@H](C)c3ccccc3)C[C@@H]21)c1ccccc1 [Example 210, (2S)-2-phenyl-N-{(3aR,4R,6aS)-2-[(1S)-1-phenylethyl]octahydrocyclopenta[c]pyrrol-4-yl}butanamide] | inhibition at 10 µM: 76%
2 | 3210 | CCC[C@H](N)C(=O)N[C@@H]1CC[C@H]2CN(S(=O)(=O)c3cccc(C(F)(F)F)c3)C[C@H]21 [Example 425, N^1-((3aS,4R,6aR)-2-{[3-(trifluoromethyl)phenyl]sulfonyl}octahydrocyclopenta[c]pyrrol-4-yl)-L-norvalinamide] | 
3 | 700 | O=C(CC(c1ccccc1)c1ccccc1)N[C@H]1CC[C@H]2CN(Cc3cccc(C(F)(F)F)c3)C[C@H]21 (relative stereo) [Example 131, 3,3-diphenyl-N-{(3aS*,4S*,6aR*)-2-[3-(trifluoromethyl)benzyl]octahydrocyclopenta[c]pyrrol-4-yl}propanamide] | 
4 |  | C[C@@H](C(=O)N[C@H]1CC[C@@H]2CN(Cc3ccccc3)C[C@@H]21)c1ccccc1 [Example 37, (2R)—N-[(3aR,4S,6aS)-2-benzyloctahydrocyclopenta[c]pyrrol-4-yl]-2-phenylpropanamide] | inhibition at 10 µM: 15%
5 | 920 | CC(C)(C)OC(=O)N1Cc2ccccc2C[C@H]1C(=O)N[C@H]1CC[C@@H]2CN(S(=O)(=O)c3cccc(C(F)(F)F)c3)C[C@@H]21 [Example 275, tert-butyl(3S)-3-{[((3aR,4S,6aS)-2-{[3-(trifluoromethyl)phenyl]sulfonyl}octahydrocyclopenta[c]pyrrol-4-yl)amino]carbonyl}-3,4-dihydroisoquinoline-2(1H)-carboxylate] | 
6 | 1200 | CC(C)C(C(=O)N[C@H]1CC[C@@H]2CN(CCCc3ccc(C(F)(F)F)cc3)C[C@@H]21)c1ccccc1 (stereo partly drawn) [Example 115, 3-methyl-2-phenyl-N-((3aR,4S,6aS)-2-{3-[4-(trifluoromethyl)phenyl]propyl}octahydrocyclopenta[c]pyrrol-4-yl)butanamide] | 
7 | 1880 | O=C(N[C@H]1CC[C@H]2CN(Cc3cccc(C(F)(F)F)c3)C[C@H]21)C(O)C1CCCCC1 (stereo partly drawn) [Example 237, 2-cyclohexyl-2-hydroxy-N-{(3aS,4S,6aR)-2-[3-(trifluoromethyl)benzyl]octahydrocyclopenta[c]pyrrol-4-yl}acetamide] | 
8 | 3110 | CCC[C@H](N)C(=O)N[C@H]1CC[C@@H]2CN(S(=O)(=O)c3cccc(C(F)(F)F)c3)C[C@@H]21 [Example 424, N^1-((3aR,4S,6aS)-2-{[3-(trifluoromethyl)phenyl]sulfonyl}octahydrocyclopenta[c]pyrrol-4-yl)-L-norvalinamide] | 
9 | 870 | CC(C)(C)OC(=O)N1CCC[C@H]1C(=O)N[C@@H]1CC[C@H]2CN(S(=O)(=O)c3cccc(C(F)(F)F)c3)C[C@H]21 [Example 266, (S)-tert-butyl 2-((3aS,4R,6aR)-2-(3-(trifluoromethyl)phenylsulfonyl)octahydrocyclopenta[c]pyrrol-4-ylcarbamoyl)pyrrolidine-1-carboxylate] | 
10 |  | O=C(N[C@@H]1CC[C@H]2CN(Cc3ccccc3)C[C@H]21)C1(c2ccccc2)CC1 [Example 28, N-[(3aS,4R,6aR)-2-benzyloctahydrocyclopenta[c]pyrrol-4-yl]-1-phenylcyclopropanecarboxamide] | IC50 [2]: 13900 nM
11 | 7630 | CCC[C@@H](C(=O)N[C@H]1CC[C@@H]2CN(S(=O)(=O)c3cccnc3)C[C@@H]21)N(C)C(=O)OC(C)(C)C [Example 530, Tert-butyl methyl((S)-1-oxo-1-((3aR,4S,6aS)-2-(pyridin-3-ylsulfonyl)octahydrocyclopenta[c]pyrrol-4-ylamino)pentan-2-yl)carbamate] | 
12 |  | O=C(N[C@H]1CC[C@H]2CN(Cc3ccccc3)C[C@H]21)C1(c2ccccc2)CCCC1 (relative stereo) [Example 1, N-[(3aS*,4S*,6aR*)-2-benzyloctahydrocyclopenta[c]pyrrol-4-yl]-1-phenylcyclopentanecarboxamide] | IC50 [2]: 3500 nM
13 | 8120 | CN[C@@H](CC(C)C)C(=O)N[C@@H]1CC[C@@H]2CN(Cc3ccccc3)C[C@@H]21 [Example 364, N^1-[(3aR,4R,6aS)-2-benzyloctahydrocyclopenta[c]pyrrol-4-yl]-N^2-methyl-L-leucinamide] | 
14 | 560 | CC(C)N[C@@H](CC(C)(C)C)C(=O)N[C@H]1CC[C@@H]2CN(S(=O)(=O)c3ccc(C(F)(F)F)cc3Cl)C[C@@H]21 [Example 487, N^1-((3aR,4S,6aS)-2-{[2-chloro-4-(trifluoromethyl)phenyl]sulfonyl}octahydrocyclopenta[c]pyrrol-4-yl)-N^2-isopropyl-4-methyl-L-leucinamide] | 
15 | 1140 | CN[C@@H](CC(C)C)C(=O)N[C@H]1CC[C@@H]2CN(S(=O)(=O)c3cccc(C(F)(F)F)c3)C[C@@H]21 [Example 384, N^2-methyl-N^1-((3aR,4S,6aS)-2-{[3-(trifluoromethyl)phenyl]sulfonyl}octahydrocyclopenta[c]pyrrol-4-yl)-L-leucinamide] | 
16 | 700 | CC(C)C[C@@H](C(=O)N[C@@H]1CC[C@H]2CN(S(=O)(=O)c3cccc(C(F)(F)F)c3)C[C@H]21)N1CCCC1 [Example 320, (2S)-4-methyl-2-pyrrolidin-1-yl-N-((3aS,4R,6aR)-2-{[3-(trifluoromethyl)phenyl]sulfonyl}octahydrocyclopenta[c]pyrrol-4-yl)pentanamide] | 
17 | 3170 | CC(C)[C@@H](CC(=O)N[C@H]1CC[C@@H]2CN(S(=O)(=O)c3cccc(C(F)(F)F)c3)C[C@@H]21)NS(C)(=O)=O [Example 515, (3R)-4-methyl-3-[(methylsulfonyl)amino]-N-((3aR,4S,6aS)-2-{[3-(trifluoromethyl)phenyl]sulfonyl}octahydrocyclopenta[c]pyrrol-4-yl)pentanamide] | 
18 | 2580 | O=S(=O)(N[C@H]1CC[C@@H]2CN(Cc3ccccc3)C[C@@H]21)c1cccc(C(F)(F)F)c1 [Example 556, N-[(3aR,4S,6aS)-2-benzyloctahydrocyclopenta[c]pyrrol-4-yl]-3-(trifluoromethyl)benzenesulfonamide] | 
19 | 970 | CC(C)(C)C[C@H](NC1CCCCC1)C(=O)N[C@H]1CC[C@@H]2CN(S(=O)(=O)c3ccc(C(F)(F)F)cc3)C[C@@H]21 [Example 502, N^2-cyclohexyl-4-methyl-N^1-((3aR,4S,6aS)-2-{[4-(trifluoromethyl)phenyl]sulfonyl}octahydrocyclopenta[c]pyrrol-4-yl)-L-leucinamide] | 
20 | 6380 | CCC[C@H](NC)C(=O)N[C@H]1CC[C@@H]2CN(S(=O)(=O)c3ccc(F)c(Cl)c3)C[C@@H]21 [Example 534, N^1-{(3aR,4S,6aS)-2-[(3-chloro-4-fluorophenyl)sulfonyl]octahydrocyclopenta[c]pyrrol-4-yl}-N^2-methyl-L-norvalinamide] | 
21 |  | CC(Cc1ccccc1)C(=O)N[C@@H]1CC[C@H]2CN(Cc3ccccc3)C[C@H]21 (stereo partly drawn) [Example 26, N-[(3aS,4R,6aR)-2-benzyloctahydrocyclopenta[c]pyrrol-4-yl]-2-methyl-3-phenylpropanamide] | IC50 [2]: 17300 nM
22 | 1500 | CC(C)C(C(=O)N[C@H]1CC[C@@H]2CN(CCCc3ccccc3)C[C@@H]21)c1ccccc1 (stereo partly drawn) [Example 105, 3-methyl-2-phenyl-N-[(3aR,4S,6aS)-2-(3-phenylpropyl)octahydrocyclopenta[c]pyrrol-4-yl]butanamide] | 
23 | 4500 | O=C(N[C@H]1CC[C@H]2CN(CCC(c3ccc(F)cc3)c3ccc(F)cc3)C[C@H]21)C(C1CCCCC1)C1CCCCC1 [Example 65, N-{(3aS,4S,6aR)-2-[3,3-bis(4-fluorophenyl)propyl]octahydrocyclopenta[c]pyrrol-4-yl}-2,2-dicyclohexylacetamide] | 
24 | 910 | CC(C)(C)C[C@H](NC1CCC1)C(=O)N[C@H]1CC[C@@H]2CN(S(=O)(=O)c3ccc(C(F)(F)F)cc3)C[C@@H]21 [Example 504, N^2-cyclobutyl-4-methyl-N^1-((3aR,4S,6aS)-2-{[4-(trifluoromethyl)phenyl]sulfonyl}octahydrocyclopenta[c]pyrrol-4-yl)-L-leucinamide] | 
25 | 870 | CCC[C@H](NC1CCCCC1)C(=O)N[C@H]1CC[C@@H]2CN(S(=O)(=O)c3ccc(C(F)(F)F)cc3)C[C@@H]21 [Example 507, N^2-cyclohexyl-N^1-((3aR,4S,6aS)-2-{[4-(trifluoromethyl)phenyl]sulfonyl}octahydrocyclopenta[c]pyrrol-4-yl)-L-norvalinamide] | 
26 | 3690 | CN[C@H](C(=O)N[C@@H]1CC[C@H]2CN(S(=O)(=O)c3cccc(C(F)(F)F)c3)C[C@H]21)C(C)C [Example 406, N^2-methyl-N^1-((3aS,4R,6aR)-2-{[3-(trifluoromethyl)phenyl]sulfonyl}octahydrocyclopenta[c]pyrrol-4-yl)-L-valinamide] | 
27 |  | O=C(N[C@H]1CC[C@@H]2CN(Cc3ccccc3)C[C@@H]21)C1(c2ccccc2)CCCCC1 [Example 46, N-[(3aR,4S,6aS)-2-benzyloctahydrocyclopenta[c]pyrrol-4-yl]-1-phenylcyclohexanecarboxamide] | IC50 [2]: 3100 nM
28 | 200 | CCN(C(=O)OC(C)(C)C)[C@@H](CC(C)C)C(=O)N[C@H]1CC[C@@H]2CN(S(=O)(=O)c3cccc(C(F)(F)F)c3)C[C@@H]21 [Example 323, tert-butyl ethyl((S)-4-methyl-1-oxo-1-((3aR,4S,6aS)-2-(3-(trifluoromethyl)phenylsulfonyl)octahydrocyclopenta[c]pyrrol-4-ylamino)pentan-2-yl)carbamate] | 

Row | Compound | IC50 [1] [nM] | further results
29 | CN(C(=O)OC(C)(C)C)C(Cc1ccccc1)C(=O)NC1CCC2CN(S(=O)(=O)c3ccc(C(F)(F)F)cc3)CC21 [Example 258, N-(tert-butoxycarbonyl)-N-methyl-N-((3aR,4S,6aS)-2-{[4-(trifluoromethyl)phenyl]sulfonyl}octahydrocyclopenta[c]pyrrol-4-yl)-1-phenylalaninamide] | 850 | 
